# Laboratory results: patent US20250136607A1 (REGOR PHARMACEUTICALS, INC., priority 2021, published 2025)
# pIC50: −log10 of the molar value.
# Target: Protein arginine deiminase 4 (PAD4) (Homo sapiens, UniProt Q9UM07)
# Assay: PAD4 ammonia release assay
# Type: biochemical
# Conditions: PAD4 activity comparison; read-out: PAD4 Ammonia assay IC50
# Method: 1) Compound preparation: The compounds were diluted to 80× final concentrations. 2) The compounds were transferred to a 384-well assay plate by Tecan. DMSO: 1.25%. 3) Preparation of 1×Assay buffer: 100 mM HEPES, PH=8.0, 2 mM CaCl2, 50 mM NaCl, 0.1 mM TCEP, 0.6 mg/ml BSA. 4) 2× enzyme working solution (PAD4:20 nM) was prepared with assay buffer, and 10 μL of the obtained working solution were added to the 384-well assay plates. 5) The plate was centrifuged at 1000 rpm for 1 min. 6) After the centrifuge, the plate was incubated at RT for 15 min. 7) 2×BAEE substrate mix (600 μM) was prepared with assay buffer and 10 μL of the obtained substrate mix were added to each well. 8) The plate was centrifuged at 1000 rpm for 1 min and then incubated at RT for 60 min. 9) 1.5× detection mix (DTT:4 mM, OPA:3 mM, EDTA: 30 mM) was prepared, and 10 μL of the mix were added to the plate. 10) The plate was centrifuged at 1000 rpm for 1 min and then incubated at RT for 120 min. 11) The 384-well plates were placed into the Envision (PerkinElmer) and the assay data were collected.
# The percent (%) inhibition at each concentration of compound was calculated based on and relative to the signal in the HPE (50 μM ref. compound) and ZPE (1.25% DMSO) wells included within each assay plate. The HPE worked as 100% inhibition, and the ZPE worked as 0% inhibition. The concentrations and % inhibition values for tested compounds were plotted and the concentration of compound required for 50% inhibition (IC50) was determined with a Four-parameter logistic dose response equation. The endpoint value (IC50) for the reference compound was evaluated in each experiment as a quality control measure. If the endpoint value is within 3-fold of the expected value, then the experiment quality is deemed as acceptable. The results are provided in Table 1 below. ≤0.1 μM=“++++”; >0.1 and ≤0.5 μM=“+++”; >0.5 and ≤5.0 μM=“++”; >5.0 μM=“+”. “−”=not available.
# Protein arginine deiminase 4 (PAD4), sequence (Q9UM07 whole entry): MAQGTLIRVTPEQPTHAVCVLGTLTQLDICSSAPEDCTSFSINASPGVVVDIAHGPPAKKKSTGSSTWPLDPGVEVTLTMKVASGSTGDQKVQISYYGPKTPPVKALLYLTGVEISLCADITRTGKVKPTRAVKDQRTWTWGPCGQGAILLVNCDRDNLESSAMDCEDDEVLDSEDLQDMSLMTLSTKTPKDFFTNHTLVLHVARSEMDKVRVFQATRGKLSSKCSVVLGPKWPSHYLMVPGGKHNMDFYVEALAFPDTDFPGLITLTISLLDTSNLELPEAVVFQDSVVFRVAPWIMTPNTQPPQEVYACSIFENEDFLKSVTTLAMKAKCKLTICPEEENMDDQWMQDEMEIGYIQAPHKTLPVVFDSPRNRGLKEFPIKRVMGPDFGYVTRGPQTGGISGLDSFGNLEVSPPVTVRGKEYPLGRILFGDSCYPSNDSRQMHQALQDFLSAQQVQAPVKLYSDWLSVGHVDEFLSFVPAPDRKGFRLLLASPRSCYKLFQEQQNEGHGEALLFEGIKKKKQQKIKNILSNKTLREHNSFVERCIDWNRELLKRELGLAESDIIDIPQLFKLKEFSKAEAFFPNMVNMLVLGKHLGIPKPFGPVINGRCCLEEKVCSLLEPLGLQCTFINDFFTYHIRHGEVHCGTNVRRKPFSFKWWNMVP
row,Compound,pIC50
1,"CC1COc2cccc3cc(-c4nc5cc(C(=O)N6CCC[C@@H](N)C6)ccc5n4C)n1c23 (stereo partly shown) [B, reference compound]",5.14
2,"CC1CNc2cccc3cc(-c4nc5cc(C(=O)N6C[C@H]7CC[C@@H]6[C@@H]7N)ccc5n4C)n1c23 (stereo partly drawn) [Example 169, ((1R,4R,7R)-7-amino-2-azabicyclo[2.2.1]heptan-2-yl)(1-methyl-2-(3-methyl-2,3-dihydro-1H-pyrrolo[1,2,3-de]quinoxalin-5-yl)-1H-benzo[d]imidazol-5-yl)methanone]",6.26

# Same assay, conditions: PAD4 ammonia release assay, BAEE substrate, 60 min at RT; read-out: Average IC50 Abs
row,Compound,pIC50
1,"CCC1CN(CCCOC)c2cccc3cc(-c4nc5cc(C(=O)N6C[C@H](N)C[C@@H](F)C6)cc(OC)c5n4C)n1c23 (stereo partly drawn) [Example 84, ((3R,5R)-3-amino-5-fluoropiperidin-1-yl)(2-(3-ethyl-1-(3-methoxypropyl)-2,3-dihydro-1H-pyrrolo[1,2,3-de]quinoxalin-5-yl)-7-methoxy-1-methyl-1H-benzo[d]imidazol-5-yl)methanone]",6.30 to 7.00
2,"Cn1c(-c2cc3c(C#N)ccc4c3n2[C@@H](C2CC2)CN4)nc2cc(C(=O)N3C[C@H]4CC[C@@H]3[C@@H]4N)cc(F)c21 [Example 120, (S)-5-(5-((1R,4R,7R)-7-amino-2-azabicyclo[2.2.1]heptane-2-carbonyl)-7-fluoro-1-methyl-1H-benzo[d]imidazol-2-yl)-3-cyclopropyl-2,3-dihydro-1H-pyrrolo[1,2,3-de]quinoxaline-7-carbonitrile]",< 5.30
3,"Cn1c(-c2cc3ccc4[nH]ccc4c3n2CC2CC2)nc2cc(C(=O)N3C[C@H]4CC[C@@H]3[C@@H]4N)cc(F)c21 [Example 144, ((1R,4R,7R)-7-amino-2-azabicyclo[2.2.1]heptan-2-yl)(2-(1-(cyclopropylmethyl)-1,6-dihydropyrrolo[2,3-e]indol-2-yl)-7-fluoro-1-methyl-1H-benzo[d]imidazol-5-yl)methanone]",6.30 to 7.00
4,"Cn1c(-c2cc3c(C#N)ccc4c3n2[C@H](C2CC2)CN4)nc2cc(C(=O)N3C[C@H]4CC[C@@H]3[C@@H]4N)cc(F)c21 [Example 119, (R)-5-(5-((1R,4R,7R)-7-amino-2-azabicyclo[2.2.1]heptane-2-carbonyl)-7-fluoro-1-methyl-1H-benzo[d]imidazol-2-yl)-3-cyclopropyl-2,3-dihydro-1H-pyrrolo[1,2,3-de]quinoxaline-7-carbonitrile]",< 5.30
5,"COc1cc(C(=O)N2CCC[C@@H](N)C2)cc2nc(-c3cc4cccc5c4n3CCN5C(=O)c3ccccc3)n(C)c12 [Example 31, (R)-(3-aminopiperidin-1-yl)(2-(1-benzoyl-2,3-dihydro-1H-pyrrolo[1,2,3-de]quinoxalin-5-yl)-7-methoxy-1-methyl-1H-benzo[d]imidazol-5-yl)methanone]",< 5.30
6,"COc1cc(C(=O)N2C[C@H](N)C[C@@H](F)C2)cc2nc(-c3cc4cccc5c4n3CCN5CCCNC(=O)NC3CC3)n(C)c12 [Example 4, 1-(3-(5-(5-((3R,5R)-3-amino-5-fluoropiperidine-1-carbonyl)-7-methoxy-1-methyl-1H-benzo[d]imidazol-2-yl)-2,3-dihydro-1H-pyrrolo[1,2,3-de]quinoxalin-1-yl)propyl)-3-cyclopropylurea]",5.30 to 6.30
7,"CC[C@@H]1CN(CCCO)c2cccc3cc(-c4nc5cc(C(=O)N6C[C@H]7CC[C@@H]6[C@@H]7N)cc(F)c5n4C)n1c23 [Example 70, ((1R,4R,7R)-7-amino-2-azabicyclo[2.2.1]heptan-2-yl)(2-((R)-3-ethyl-1-(3-hydroxypropyl)-2,3-dihydro-1H-pyrrolo[1,2,3-de]quinoxalin-5-yl)-7-fluoro-1-methyl-1H-benzo[d]imidazol-5-yl)methanone]",< 5.30
8,"COc1cc(C(=O)N2C[C@H]3CC[C@@H]2[C@@H]3N)cc2nc(-c3cc4cccc5c4n3CCN5CCO)n(C)c12 [Example 11, ((1R,4R,7R)-7-amino-2-azabicyclo[2.2.1]heptan-2-yl)(2-(1-(2-hydroxyethyl)-2,3-dihydro-1H-pyrrolo[1,2,3-de]quinoxalin-5-yl)-7-methoxy-1-methyl-1H-benzo[d]imidazol-5-yl)methanone]",5.30 to 6.30
9,"CCn1cc(Cn2c(-c3cc4cccc5c4n3CCN5CCCOC)nc3cc(C(=O)N4C[C@H](N)C[C@@H](F)C4)cc(F)c32)cn1 [Example 41, ((3R,5R)-3-amino-5-fluoropiperidin-1-yl)(1-((1-ethyl-1H-pyrazol-4-yl)methyl)-7-fluoro-2-(1-(3-methoxypropyl)-2,3-dihydro-1H-pyrrolo[1,2,3-de]quinoxalin-5-yl)-1H-benzo[d]imidazol-5-yl)methanone]",6.30 to 7.00
10,"CCn1c(-c2cc3cccc4c3n2C(C)CN4CCCO)nc2cc(C(=O)N3C[C@H](N)C[C@@H](F)C3)cc(OC)c21 (stereo partly drawn) [Example 66, ((3R,5R)-3-amino-5-fluoropiperidin-1-yl)(1-ethyl-2-(1-(3-hydroxypropyl)-3-methyl-2,3-dihydro-1H-pyrrolo[1,2,3-de]quinoxalin-5-yl)-7-methoxy-1H-benzo[d]imidazol-5-yl)methanone]",5.30 to 6.30
11,"CCC1C(=O)Nc2c(C#N)ccc3cc(-c4nc5cc(C(=O)N6C[C@H]7CC[C@@H]6[C@@H]7N)cc(F)c5n4C)n1c23 (stereo partly drawn) [Example 127, 5-(5-((1R,4R,7R)-7-amino-2-azabicyclo[2.2.1]heptane-2-carbonyl)-7-fluoro-1-methyl-1H-benzo[d]imidazol-2-yl)-3-ethyl-2-oxo-2,3-dihydro-1H-pyrrolo[1,2,3-de]quinoxaline-9-carbonitrile]",5.30 to 6.30
12,"COc1cc(C(=O)N2CCC[C@@H](N)C2)cc2nc(-c3cc4cccc5c4n3CCC(=O)N5)n(C)c12 [Example 8, (R)-6-(5-(3-aminopiperidine-1-carbonyl)-7-methoxy-1-methyl-1H-benzo[d]imidazol-2-yl)-3,4-dihydro-[1,4]diazepino[3,2,1-hi]indol-2(1H)-one]",< 5.30
13,"COc1cc(-n2cc3c(n2)CCC(N)C3)cc2nc(-c3cc4cccc5c4n3CCN5CCCO)n(C)c12 (stereo not shown) [Example 62, 3-(5-(5-(5-amino-4,5,6,7-tetrahydro-2H-indazol-2-yl)-7-methoxy-1-methyl-1H-benzo[d]imidazol-2-yl)-2,3-dihydro-1H-pyrrolo[1,2,3-de]quinoxalin-1-yl)propan-1-ol]",< 5.30
14,"CCC1C(=O)Nc2c(F)ccc3cc(-c4nc5cc(C(=O)N6C[C@H]7CC[C@@H]6[C@@H]7N)cc(F)c5n4C)n1c23 (stereo partly drawn) [Example 126, 5-(5-((1R,4R,7R)-7-amino-2-azabicyclo[2.2.1]heptane-2-carbonyl)-7-fluoro-1-methyl-1H-benzo[d]imidazol-2-yl)-3-ethyl-9-fluoro-1H-pyrrolo[1,2,3-de]quinoxalin-2(3H)-one]",5.30 to 6.30
15,"CCC1CNc2c(C#N)ccc3cc(-c4nc5cc(C(=O)N6C[C@H]7CC[C@@H]6[C@@H]7N)cc(F)c5n4C)n1c23 (stereo partly drawn) [Example 128, 5-(5-((1R,4R,7R)-7-amino-2-azabicyclo[2.2.1]heptane-2-carbonyl)-7-fluoro-1-methyl-1H-benzo[d]imidazol-2-yl)-3-ethyl-2,3-dihydro-1H-pyrrolo[1,2,3-de]quinoxaline-9-carbonitrile]",6.30 to 7.00
16,"Cn1c(-c2cc3ccc4c(c3n2CC2CC2)CCN(C2CC2)C4)nc2cc(C(=O)N3C[C@H]4CC[C@@H]3[C@@H]4N)cc(F)c21 [Example 155, ((1R,4R,7R)-7-amino-2-azabicyclo[2.2.1]heptan-2-yl)(2-(7-cyclopropyl-1-(cyclopropylmethyl)-6,7,8,9-tetrahydro-1H-pyrrolo[2,3-f]isoquinolin-2-yl)-7-fluoro-1-methyl-1H-benzo[d]imidazol-5-yl)methanone]",6.30 to 7.00
17,"CCC1CNc2cccc3cc(-c4nc5cc(C(=O)N6C[C@H]7CC[C@@H]6[C@@H]7N)cnn5c4C)n1c23 (stereo partly drawn) [Example 138, [(1R,4R,7R)-7-amino-2-azabicyclo[2.2.1]heptan-2-yl]-[2-(11-ethyl-1,9-diazatricyclo[6.3.1.0^4,12]dodeca-2,4,6,8(12)-tetraen-2-yl)-3-methyl-imidazo[1,2-b]pyridazin-7-yl]methanone]",5.30 to 6.30
18,"Cn1c(-c2cc3ccn4ccnc4c3n2CC2CC2)nc2cc(C(=O)N3C[C@H]4CC[C@@H]3[C@@H]4N)cc(F)c21 [Example 150, ((1R,4R,7R)-7-amino-2-azabicyclo[2.2.1]heptan-2-yl)(2-(9-(cyclopropylmethyl)-9H-imidazo[1,2-a]pyrrolo[2,3-c]pyridin-8-yl)-7-fluoro-1-methyl-1H-benzo[d]imidazol-5-yl)methanone]",6.30 to 7.00
19,"COc1cc(C(=O)N2C[C@H](N)C[C@@H](F)C2)cc2nc(-c3cc4cccc5c4n3CCN5CCCO)n(Cc3ccc(F)cc3)c12 [Example 36, ((3R,5R)-3-amino-5-fluoropiperidin-1-yl)(1-(4-fluorobenzyl)-2-(1-(3-hydroxypropyl)-2,3-dihydro-1H-pyrrolo[1,2,3-de]quinoxalin-5-yl)-7-methoxy-1H-benzo[d]imidazol-5-yl)methanone]",6.30 to 7.00
20,"CC1CNc2cccc3cc(-c4nc5cc(C(=O)N6C[C@H]7CC[C@@H]6[C@@H]7N)ccc5n4C)n1c23 (stereo partly drawn) [Example 169, ((1R,4R,7R)-7-amino-2-azabicyclo[2.2.1]heptan-2-yl)(1-methyl-2-(3-methyl-2,3-dihydro-1H-pyrrolo[1,2,3-de]quinoxalin-5-yl)-1H-benzo[d]imidazol-5-yl)methanone]",5.30 to 6.30
